The values that follow are results of earlier work, collected in patent US20200397798A1, “COMBINATION THERAPIES WITH FARNESOID X RECEPTOR (FXR) MODULATORS” (Akarna Therapeutics, Ltd., priority 2016, published 2020).

Entries after “also recorded” stand apart in the source; their conditions may differ.

For series [1], the system named is KK-A(y) mice. The note with it: mouse, in vivo.
Series [2] concerns plasma triglyceride levels. The note with it: human, in vivo.
In series [3] the test system is DSS- and TNBS-induced intestinal inflammation. The note with it: wild type, but not Fxr−/− mice.
In series [4] the test system is CGD-susceptible C57L mice. The note with it: lithogenic diet supplemented with GW4064, 1 week.
Series [5] relates to mice. The note with it: in vivo.
The test system of series [6] is T84 cells.
In series [7] the test system is ob/ob and db/db mice. The note with it: mouse, in vivo.
The subject of series [8] is patients with biopsy-proven NASH. The note with it: OCA arm, 25 mg orally daily.
Series [9] concerns C57BL/6 mice fed an MCD diet.

Take `C[C@H](CCC(=O)O)[C@H]1CC[C@H]2[C@@H]3[C@H](O)C[C@@H]4C[C@H](O)CC[C@]4(C)[C@H]3C[C@H](O)[C@]12C` [CA]: the “hepatic TG accumulation and VLDL secretion” value in series [1] was “prevented”.

In the case of `C[C@H](CCC(=O)O)[C@H]1CC[C@H]2[C@@H]3[C@H](O)C[C@@H]4C[C@H](O)CC[C@]4(C)[C@H]3CC[C@]12C` [CDCA, chenodeoxycholic acid], in [2], the plasma triglyceride levels entry is “decreased circulating TG levels; also recorded: reduces plasma triglyceride levels”. With `CC[C@H]1[C@@H](O)[C@@H]2[C@H](CC[C@]3(C)[C@@H]([C@H](C)CCC(=O)O)CC[C@@H]23)[C@@]2(C)CC[C@@H](O)C[C@@H]12` [Compound 6-ECDCA], in series [3], the “expression of proinflammatory cytokines, chemokines and their receptors” value is “repressed”. In the case of `CC(C)c1onc(-c2c(Cl)cccc2Cl)c1COc1ccc(/C=C/c2cccc(C(=O)O)c2)c(Cl)c1` [GW4064], the CGD onset result in series [4] is on record as “prevented CGD onset”. Also, in series [5], the “ovalbumin-induced diarrhea and cholera toxin-induced intestinal fluid accumulation” value is “reduced”. Further, in [6], the “Cl− secretory responses to Ca2+ and cAMP-dependent agonists” value is reported as “attenuated”; the “nuclear translocation of the receptor (FXR)” value is “induced nuclear translocation”. In addition, in [7], the liver steatosis entry is reported as “able to prevent liver steatosis”.

`CC[C@H]1[C@@H](O)[C@@H]2[C@H](CC[C@]3(C)[C@@H]([C@H](C)CCC(=O)O)CC[C@@H]23)[C@@]2(C)CC[C@@H](O)C[C@@H]12` [OCA, obeticholic acid]: the “change in HDL, total cholesterol and LDL compared to placebo” value in series [8] was “decrease in the high-density lipoprotein (HDL) and an increase in the total cholesterol and low-density lipoprotein (LDL)”.

As for `CC(C)OC(=O)C1=CN(C(=O)c2ccc(F)c(F)c2)CC(C)(C)c2c1[nH]c1ccccc21` [WAY-362450], the “elevations of serum ALT and AST induced by the MCD diet” value in [9] (4 weeks treatment) is on record as “markedly reduced”. Moreover, the “hepatoprotective effects in FXR−/− mice” value in series [9] (FXR−/− mice fed an MCD diet) is on record as “abolished”.
